Structures can show the parent of a compound that is named as a salt. Where two headings read alike, the source gives them in different places.

We go through one molecule from patent publication US20200216906A1, “METHODS AND COMPOSITIONS RELATING TO THE DIAGNOSIS AND TREATMENT OF CANCER” (PRESIDENT AND FELLOWS OF HARVARD COLLEGE, priority 2015, published 2020).

Series [1] relates to Panc02.13 cells. The experiment in a line: Radiolabeled gemcitabine efflux. Type of series: in vitro ADME, human. To be noted: counts per μg protein; more in Hippo-ON. The method, then: Panc02.13 cells expressing GFP or YapS6A plasmid were treated with radiolabeled gemcitabine (0.5 μM) for one hour. Cells were washed twice with PBS and incubated in fresh medium. Medium was collected over the time course of 24 hours and radioactivity was measured using scintillation counter.
It was considered whether the Hippo pathway might affect the efflux of gemcitabine and/or its metabolites. To assess directly gemcitabine efflux in conditioned media of pancreatic cancer cells both radiolabeled gemcitabine and LC-MS/MS-based methods were used. Panc02.13 cells grown in highly crowded conditions (Hippo-ON) pumped out 2-3-fold more radiolabeled gemcitabine (counts per μg protein) compared with cells grown in less crowded conditions (Hippo-OFF) (FIG. 22A). Another pathway of inactivation and export is the enzymatic conversion of gemcitabine to a uracil derivative (2′,2′-difluorodeoxyuridine, dFdU) by deamination catalyzed by cytidine deaminase (CDA)(Veltkamp et al., 2008). The efflux of gemcitabine and its deaminated metabolite, dFdU was measured by LC-MS/MS (24) in Panc02.13 cells expressing YAPS6A or vector control after gemcitabine treatment (FIG. 22B).
Measuring gemcitabine efflux. […] Medium was collected over the time course of 24 hours and radioactivity was measured using scintillation counter.

Series [2] deals with Miapaca2-YAPS6A xenografts. The series can be described thus: Mouse xenograft, Miapaca2-YAPS6A. Type of series: in vivo. How it is done: (§1) To assess the gemcitabine response to Hippo pathway inactivation in tumors a mouse xenograft model of pancreatic carcinoma cells and patient-derived xenograft (PDX) models from a variety of solid tumors including human cancers from non-small cell lung, esophagus, breast, mesothelium, ovary, colon, head and neck, sarcoma, and cholangiocarcinoma were used (FIG. 30). In mouse xenograft studies, two human pancreatic cancer cell lines (Miapac2 and Panc02.13) expressing GFP or YAPS6A were injected into athymic mice. Both parental or GFP expressing cells grew rapidly, producing palpable tumors in 5-10 days. When the tumors were ˜200 mm^3 (as measured using a caliper), mice were randomized into treatment and control groups. The […] received i.p. saline injections on alternate days for two weeks, and the latter received gemcitabine (20 mg/kg in Miapaca2-YAPS6A and 50 mg/Kg in Panc02.13-YAPS6A cohorts).
Tumorigenicity in Nude Mice. All in vivo experiments were performed using 6-week-old to 8-week-old athymic nude mice. Mice were maintained in laminar flow rooms with constant temperature and humidity. Miapaca2 or Panc02.13 cells were inoculated subcutaneously (s.c.) into each flank of the mice. Cells (2×10^6 in suspension) were injected on day 0, and tumor growth was followed every 2 to 3 days by tumor diameter measurements using vernier calipers. Tumor volumes (V) were calculated using the formula: V=AB2/2 (A, axial diameter; B, rotational diameter). When the outgrowths were • 200 mm^3, mice were divided at random into two groups (control and treated, n=3-8). The treated group received gemcitabine injection or saline control on alternate days (MWF) for 2 weeks.
Intra-tumor gemcitabine measurements.

Series [3] can be described thus: Stability of gemcitabine in culture and conditioned media. Type of series: in vitro ADME. The text has this: Drug availability mediated by transport or binding or export from the cell is known to be a major determinant of the sensitivity to chemotherapy (O'CONNOR, 2007). […] Furthermore, conditioned media collected from Panc02.13 cells exposed to gemcitabine after 5 days retained 96.7% activity (FIGS. 35A-[…]).

The test system of series [4] is Panc02.13 cells expressing YAPS6A construct. The experiment in a line: Kinetic cell growth assay, Panc02.13 cells expressing YAPS6A. Format: cell-based, human. As to conditions: for EC50: Homo sapiens, YAPS6A construct. How it is done: Panc02.13 cells were used to express YAPS6A (or vector controls) under sparse and dense cultures. Expression was confirmed by confocal microscopy (data not shown). Suppression of the Hippo pathway by expression of non-phospho, active form of YAP (YAPS6A) sensitized pancreatic cancer cells to gemcitabine and 5-FU (FIGS. 6 and 7). Apoptosis was measured by immunobloting with cleaved caspases 3/7 or PARP. Blots were also stained with anti-β-actin for loading control. The effect of Hippo pathway suppression on gemcitabine and 5-FU senstitization was maintained in 3D spheroid culture (FIG. 8). The effects of eleven cytotoxic drugs on the growth of Panc02.13 cells expressing vector only or YAPS6A construct grown under low or high densities were determined (Table 1).
(§2) The effect of gemcitabine on pancreatic cancer cell growth was studied using a kinetic cell growth assay. Pancreatic cancer cells were plated on 96-well plates (Essen ImageLock, Essen Instruments, MI, US) at varying densities (2-4×10^3 for low density or 15-20×10^3 for high density experiments). Small molecule inhibitors at different doses were added 24 hours after plating and cell confluence was monitored with Incucyte Live-Cell Imaging System and software (Essen Instruments). Confluence was observed every hour for 48-144h or until the control (DMSO only) samples reached 100% confluence.
Cell lines (Panc02.13, Panc10.05 or Miapaca2) were transfected with YAPS6A constructs (Addgene) using Lipofectamine™ (Invitrogen, Carlsbad, Calif.) following the manufacturer's instructions and 48 hour post-transfection selected in 5-10 μg/ml Blasticidin (InvivoGen, San Diego, Calif.). The clones screened for YAPS6A expression by Western blot. Stable cell lines were maintained in complete medium and 5 μg/ml Blasticidin.
as §2, with “Kinetic Cell growth assay. The” for “The”, “(2-4X103” for “(2-4×10^3”, “15-20X103” for “15-20×10^3”, “Incucyte™” for “Incucyte”

The subject of series [5] is Panc02.13-parental xenografts. The series can be described thus: Mouse xenograft, Panc02.13-parental. Format: in vivo. As to conditions: alternate days for two weeks. How it is done: as §1
Tumorigenicity in Nude Mice. All in vivo experiments were performed using 6-week-old to 8-week-old athymic nude mice. Mice were maintained in laminar flow rooms with constant temperature and humidity. Miapaca2 or Panc02.13 cells were inoculated subcutaneously (s.c.) into each flank of the mice. […] Tumor volumes (V) were calculated using the formula: V=AB2/2 (A, axial diameter; B, rotational diameter). […]

The term EC50 denotes the concentration that produces a half-maximal response. Regarding `Nc1ccn([C@@H]2O[C@H](CO)[C@@H](O)C2(F)F)c(=O)n1` [Gemcitabine, Gemcitabine hydrochloride], the “Radiolabeled gemcitabine pumped out, highly crowded vs less crowded” value in series [1] is recorded as 2-3 fold. In addition, the Growth of xenografts result in series [2] (20 mg/kg, alternate days for two weeks) was “significantly slowed”; in series [5], “no affect”. Besides, the “Induction in apoptosis vs parental controls” value in series [2] (cleaved caspase 7 and phosphor-H2aX) is on record as > 2 fold. Also, in series [3] (conditioned media from Panc02.13 cells after 5 days), the “Activity retained in conditioned media” value came out at 96.7%. The “Lability in culture media” value in series [3] (culture media) is recorded as “not labile”. Besides, the EC50 in series [4] (high density, read-out: High density (EC50, nM) 02.13-YAPS6A) came out at 17 nM; in series [4] (low density, read-out: Low density (EC50, nM) 02.13-YAPS6A) it was 1.7 nM. Also, the “Sensitization by expression of YAPS6A” value in series [4] (suppression of the Hippo pathway, high cell density) is listed as “sensitized”.
